Entries after “also recorded” stand apart in the source; their conditions may differ.
How the values were obtained:
[1] = tested on: BALB/c mice after lacrimal gland excision; assay: Lacrimal gland excision (LGE) mouse model of aqueous-deficient dry eye; assay type: in vivo
Method: To assess corneal epithelial disruption, 5 μL of lissamine green (LG) dye (1%) was applied to the ocular surface of isofluorane-anesthetized mice. Photographs of the eye were taken using a Nikon Digital camera adapted to an Olympus Zoom Stereo Microscope (Olympus, Center Valley, Pa., USA). Each corneal quadrant was scored on a 3-point scale by one blinded, trained observer, with the extent of staining in each quadrant classified as: 0, no staining; 1, sporadic (involving <25% of the total surface) staining; grade 2, diffuse punctate staining (25-75%); and grade 3, coalesced punctate staining (≥75%). The total grade is reported as the sum of scores from all four quadrants, ranging from 0 to 12.
A lacrimal gland excision (LGE) model of aqueous-deficient dry eye was adapted from a reported method (30). The extraorbital lacrimal gland was exposed on each side of wild-type female BALB/c mice (7-8 weeks of age) by 3-mm linear skin incisions. Lacrimal ducts were cauterized and the entire gland was removed bilaterally, avoiding facial vessels and nerves. Incisions were each closed with a single interrupted 6-0 silk suture. Orbital lacrimal tissue remained functional. Eyes with reduced corneal sensation (<5% of mice studied), as identified from neurotrophic corneal ulcers within 1 day of LGE, were excluded. Mice were randomized to receive either treatment (in both eyes) with CFTRact-K089 (0.1 nmol) or vehicle. Mice were treated three times daily (8 AM, 2 PM and 8 PM) for 2 weeks starting on Day 1 after LGE. Tear secretion and LG staining were performed immediately prior to, and one hour after the initial dose on day 4, 10 and 14 after LGE.
Lissamine green staining. […] Each corneal quadrant was scored on a 3-point scale by one blinded, trained observer, with the extent of staining in each quadrant classified as: 0, no staining; 1, sporadic (involving <25% of the total surface) staining; grade 2, diffuse punctate staining (25-75%); and grade 3, coalesced punctate staining (≥75%). […]

[2] = Pharmacokinetics in mice (plasma LC/MS); assay type: in vivo, mouse
Method: (§1) All animal experiments were approved by UCSF Institutional Animal Care and Use Committee. Female CD1 mice were treated with 10 mg/kg CFTRact-J027 (saline containing 5% DMSO and 10% Kolliphor HS 15) either intraperitoneally (ip) or orally. Blood was collected at 15, 30, 60, 150, 240 and 360 min after treatment by orbital puncture and centrifuged at 5000 rpm for 15 min to separate plasma. Plasma samples (60 μL) were mixed with 300 μL acetonitrile and centrifuged at 13000 rpm for 20 min, and 90 μL of the supernatant was used for LC/MS. The solvent system consisted of a linear gradient from 5 to 95% acetonitrile over 16 min (0.2 ml/min flow). Mass spectra was acquired on a mass spectrometer (Waters 2695 and Micromass ZQ) using electrospray (+) ionization, mass ranging from 100 to 1500 Da, cone voltage 40 V. Calibration standards were prepared in plasma from untreated mice to which known amounts of CFTRact-J027 were added.
as §1, with “Pharmacokinetics. All” for “All”

[3] = 7-day oral toxicity study in mice (blood count, serum chemistry, body weight, lung wet/dry weight); assay type: in vivo, mouse
From the text: Chronic administration and toxicity studies.

[4] = 0.1 nmol topical three times daily
[5] = 10 mg/kg oral once per day, 7 days

Compound: CCN(CC)c1nc(Nc2ccccc2)nc(OC(C(F)(F)F)C(F)(F)F)n1 [CFTRact-K089, N,N-Diethyl-6-[(1,1,1,3,3,3-hexafluoropropan-2-yl)oxy]-N′-phenyl-1,3,5-triazine-2,4-diamine]
- LG score change ([1]; 0.1 nmol three times daily, by Day 14, 12-point scale): −0.6±0.6
- corneal / ocular surface epithelial disruption after LGE [1, 4]: fully prevented the corneal epithelial disruption; also recorded: prevented ocular surface epithelial disruption at all time points
- tear secretion / tear volume after LGE [1, 4]: restored tear secretion to basal levels; also recorded: maintained basal tear volume

Compound: Nc1ccc([N+](=O)[O-])cc1-c1nc2ccccc2n(Cc2ccccc2)c1=O [CFTRact-J027, 3-(2-amino-5-nitrophenyl)-1-benzylquinoxalin-2(1H)-one]
- serum elimination half-life ([2]; 10 mg/kg ip): ~16 min
- serum concentration at 150 min ([2]; 10 mg/kg ip, 150 min): undetectable
- bioavailability, in words ([2]; 10 mg/kg oral): very low bioavailability; also recorded: minimal bioavailability
- blood levels ([2]; 10 mg/kg oral): < 200 nM
- serum concentration at other time points ([2]; 10 mg/kg oral): undetectable
- serum concentration at 30 min ([2]; 10 mg/kg oral, 30 min): 180 nM
- toxicity after chronic administration ([3]; 10 mg/kg oral): without apparent toxicity
- ALP [3, 5]: 53 ± 2.5 U/L
- ALT [3, 5]: 44 ± 6 U/L
- AST [3, 5]: 105 ± 11 U/L
- Albumin [3, 5]: 2.9 ± 0.03 g/dL
- BUN [3, 5]: 18.4 ± 1.2 mg/dL
- Bicarbonate [3, 5]: 16 ± 1.7 mmol/L
- CK [3, 5]: 312 ± 62 U/L
- Calcium [3, 5]: 8.5 ± 0.04 mg/dL
- Chloride [3, 5]: 115 ± 1 mmol/L
- Cholesterol [3, 5]: 121 ± 6 mg/dL
- Creatinine [3, 5]: 0.2 ± 0 mg/dL
- Globulin [3, 5]: 2.2 ± 0.1 g/dL
- Glucose [3, 5]: 164 ± 6 mg/dL
- Hemoglobin [3, 5]: 12.8 ± 0.3 g/dL
- Leukocytes [3, 5]: 1.9 ± 0.5 10^3/μL
- Phosphorus [3, 5]: 6.8 ± 0.3 mg/dL
- Potassium [3, 5]: 4.4 ± 0.1 mmol/L
- Sodium [3, 5]: 151 ± 0.7 mmol/L
- Thrombocytes [3, 5]: 900 ± 48 10^3/μL
- Total bilirubin [3, 5]: 0.1 ± 0 mg/dL
- Total protein [3, 5]: 5.2 ± 0.1 g/dL
- body weight and airway/lung fluid accumulation ([3]; 7-day treated mice): nor did it change body weight or produce airway/lung fluid accumulation
- lung water content ([3]; 7-day treated mice): normal lung water content
- serum chemistry and blood parameters, in words ([3]; 7-day treated mice): did not affect the major serum chemistry and blood parameters

Source: patent US11230535B2, “CFTR regulators and methods of use thereof” (THE REGENTS OF THE UNIVERSITY OF CALIFORNIA, priority 2015, dated 2022)
